Patent US20030138857A1, “Method of inhibiting atherosclerotic plaque destabilization” (priority 2002, published 2003)
Where “and” joins values, the source holds several entries; their conditions need not be identical. Identical values can stand only once. Where a SMILES comes first, the peptide text is derived from it. The star is where a group is joined. Cbz = O=C(OCc1ccccc1)*; CH2F = FC*

System: VSMCs
Assay: Monocyte/VSMC co-culture apoptosis assay (Hoechst 33342/propidium iodide, apoptotic index)
Type: cell-based, human
Conditions: for inhibition of M-CSF-triggered, monocyte-induced apoptosis of VSMCs: eptifibatide 5 μg/ml, tirofiban 0.35 μg/ml, compared with abciximab; for VSMC apoptosis: M-CSF 100 ng/mL
Protocol: VSMCs (passage 3 to 7) were obtained from Clonetics and from heart donors. VSMC identity was confirmed by α-smooth muscle actin staining. VSMCs initially were grown in growth medium (SmGM2; Clonetics) with 5% serum, and at 60% to 70% confluence, the media was changed to a serum-free medium (50:50 of DMEM/F12 media with 5 mL of ITS, PSA, L-glutamine, and nonessential amino acids per 500 mL of solution). After 72-hour incubation in the serum-free medium, VSMCs were co-cultured with monocytes. Co-culture experiments were also conducted with the use of SmGM2 media (5% serum) throughout the experiment.
Leukocytes were isolated from buffy coat preparations (American Red Cross) by means of the Ficoll-Paque gradient method. Monocytes were isolated by means of an indirect magnetic labeling system and a monocyte isolation kit. The purity of monocytes obtained was […], which was confirmed by flow cytometry with anti-CD-14-FITC and anti-CD45-PE antibodies.
Freshly isolated monocytes were added 3:1 to VSMCs. Conditions included wells with VSMCs alone (with or without M-CSF) and VSMCs co-cultured with monocytes (with and without M-CSF). Experiments were conducted with either no serum or 5% serum in media. Experiments were also repeated by preincubating VSMCs with a pan-caspase inhibitor (1 hour at 37° C.) (ZVAD-fmk [10 μmol/L/mL]; sequence Z-Val-Ala-Asp [Ome]-CH2 F), before addition of the MMs and M-CSF. Media and ZVAD-fmk were replenished every 24 hours. Specific controls were used for VSMCs with ZVAD-fmk.
Abciximab, aggrastat, and eptifibatide, 3 established parenteral glycoprotein (GP) IIb/IIIa blockers, were added to MM and VSMC co-cultures before exposure to M-CSF. Controls were used for VSMCs with abciximab, aggrastat, and eptifibatide separately, with or without M-CSF. All experiments were done in triplicate.
Experiments were done with the use of recombinant human IL-1 β (100 to 1000 pg/mL) in place of M-CSF. Anti-human M-CSF neutralizing antibody (1 μg/mL) was added along with IL-1 β, and the VSMCs plus monocytes were co-cultured for 72 hours. Isotype control, IgG2a (clone 20102.1), was used for VSMCs cultured with monocytes and IL-1 β.
After 72-hour incubation, MM and VSMC co-cultures were stained live with the Vybrant Apoptosis kit (Molecular Probes), consisting of 2 nuclear stains, Hoechst 33342 (5 mg/mL) and propidium iodide (1 mg/mL). After incubation for 20 minutes at 37° C., coverslips were washed and the cell death index was estimated as previously described (Webster et al, J. Clin. Invest. 104:239-252 ([…])) (apoptotic index=dead cells/[live cells+dead cells]×100).

CCCCS(=O)(=O)N[C@@H](Cc1ccc(OCCCCC2CCNCC2)cc1)C(=O)O [tirofiban, reference compound]
inhibition of M-CSF-triggered, monocyte-induced apoptosis of VSMCs: unable to confer similar protection | cell death index (tirofiban 0.35 μg/mL, VSMCs with monocytes and M-CSF): 65.0±3.4%

N=C(N)NCCCC[C@@H]1NC(=O)CCSSC[C@@H](C(N)=O)NC(=O)[C@@H]2CCCN2C(=O)[C@H](Cc2c[nH]c3ccccc23)NC(=O)[C@H](CC(=O)O)NC(=O)CNC1=O [eptifibatide, reference compound] (HELM PEPTIDE1{[O=C(CCS[*:3])[*:2]].[N=C(N)NCCCC[C@H](N[*:1])C(=O)[*:2]].G.D.W.P.C.[am]}$PEPTIDE1,PEPTIDE1,1:R3-7:R3$$$V2.0)
cell death index (eptifibatide 5 μg/mL, VSMCs with monocytes and M-CSF): 51.3±2.2% | inhibition of M-CSF-triggered, monocyte-induced apoptosis of VSMCs: unable to confer similar protection

COC(=O)C[C@H](NC(=O)[C@H](C)NC(=O)[C@@H](NC(=O)OCc1ccccc1)C(C)C)C(=O)CF [ZVAD-fmk, Z-Val-Ala-Asp [Ome]-CH2 F, reference compound] (Cbz-Val-Ala-Asp(OMe)-CH2F)
apoptosis induced by co-culture with activated monocytes (VSMCs preincubated with ZVAD-fmk (10 μmol/L/mL)): completely abrogated | apoptotic index of VSMCs (VSMCs preincubated with ZVAD-fmk (10 μmol/L/mL), co-cultured with monocytes and M-CSF, 72 h): 15.4±0.4%

IL-1: recombinant human IL-1 β, monocyte-activating cytokine (R&D Systems)
apoptotic index of VSMCs (VSMCs with monocytes and IL-1 100 pg/mL in place of M-CSF): 10.5±2.4% | monocyte-induced VSMC death (VSMCs with monocytes and IL-1 500 pg/mL): 59.5±3.5% | monocyte-induced VSMC death (VSMCs with monocytes and IL-1 1000 pg/mL (1 ng/mL)): 59±3.8%

B1: M-CSF: recombinant macrophage colony-stimulating factor (R&D Systems), hematopoietic growth factor (protein, UniProt P09603 33-554, looked up)
Macrophage colony-stimulating …: EEVSEYCSHMIGSGHLQSLQRLIDSQMETSCQITFEFVDQEQLKDPVCYLKKAFLLVQDIMEDTMRFRDNTPNAIAIVQLQELSLRLKSCFTKDYEEHDKACVRTFYETPLQLLEKVKNVFNETKNLLDKDWNIFSKNCNNSFAECSSQDVVTKPDCNCLYPKAIPSSDPASVSPHQPLAPSMAPVAGLTWEDSEGTEGSSLLPGEQPLHTVDPGSAKQRPPRSTCQSFEPPETPVVKDSTIGGSPQPRPSVGAFNPGMEDILDSAMGTNWVPEEASGEASEIPVPQGTELSPSRPGGGSMQTEPARPSNFLSASSPLPASAKGQQPADVTGTALPRVGPVRPTGQDWNHTPQKTDHPSALLRDPPEPGSPRISSLRPQGLSNPSTLSAQPQLSRSHSSGSVLPLGELEGRRSTRDRRSPAEPEGGPASEGAARPLPRFNSVPLTDTGHERQSEGSFSPQLQESVFHLLVPSVILVLLAVGGLLFYRWRRRSHQEPQRADSPLEQPEGSPLTQDDRQVELPV
VSMC apoptosis (VSMCs in direct contact with activated monocytes): 66.3±1.8% | VSMC apoptosis (monocytes separated from VSMCs by porous insert (3-μm pores)): 21.0±1.0% | apoptotic index of VSMCs (VSMCs cultured with M-CSF (100 ng/mL) but without monocytes): 15.7±1.5% | apoptotic index of VSMCs (VSMCs cultured with both M-CSF (100 ng/mL) and monocytes, 4 sets of experiments): 58.8±3.3% | apoptotic index of VSMCs (VSMCs with M-CSF-activated monocytes, no inhibitor (comparison group of later experiments; M-CSF concentration not given)): 60±2.1% and 60.0±3.0% and 51.9±1.6% and 51.9±1.8%

B2: abciximab: chimeric monovalent and humanized monoclonal antibody Fab fragment; GP IIb/IIIa blocker that binds Mac-1 (antibody, chains of the INN, looked up, V domains shown)
VH: EVQLQQSGTVLARPGASVKMSCEASGYTFTNYWMHWVKQRPGQGLEWIGAIYPGNSDTSYIQKFKGKAKLTAVTSTTSVYMELSSLTNEDSAVYYCTLYDGYYVFAYWGQGTLVTVSA
VL: EIVLTQSPVTLSVTPGDSVSLSCRASRDISNNLHWFQQTSHESPRLLIKYASQSMSGIPSRFSGSGSGTDFTLSINSVETEDFGMYFCQQTNSWPYTFGGGTKLEIK
modifications: Fab
apoptotic index of VSMCs (abciximab 7 μg/mL, VSMCs with monocytes and M-CSF): 19.1±2.3% and 19.1±2.2% | apoptotic index of VSMCs (abciximab 7 μg/mL, VSMCs with monocytes and M-CSF, listed as Abciximab): 19.1±2.2%
